Two compounds from patent publication US20110318393A1, “Substituted Pyrazole Compounds” (MIIKANA THERAPEUTICS, INC., priority 2008, published 2011) can be followed below.

One test deals with HCT-116 cell growth. Put plainly: Whole cell cytotoxicity assay: Sulforhodamine B. Particulars: Homo sapiens, HCT116, 96 hours, SRB staining, less than or equal to 100 nM. The class given is cell-based. The protocol:
Human tumor-derived cell lines, HCT116 or MCF7 (ATCC) were plated in a 96 well plate in DMEM containing 10% fetal bovine serum and 2 mM L-glutamine at a density of 500 HCT116 cells or 1,000 MCF7 cells per well and incubated at 37° C., 5% CO2, for 24 hours prior to the addition of experimental compounds. Compounds were added using the dilution series indicated to duplicate plates and the cells were incubated in media plus compound for 96 hours. An additional plate was fixed in 10% TCA at the time of the addition of compound to provide a measurement of the cell population at time zero, the time of drug addition. […] The absorbance was read at 570 nm. Percentage growth was calculated using the absorbance readings from the time zero plate (Tz) and the dilution series plate […] which included a column of cells grown in media without compound as a control (C) using the formulas: […]
Three dose response parameters were calculated for each experimental agent. […] The drug concentration resulting in total growth inhibition (TGI) was calculated from Ti=Tz. […] Values are calculated for each of these three parameters if the level of activity was reached; however, if the effect was not reached or was exceeded, the value for that parameter is expressed as greater or less than the maximum or minimum concentration tested.

For a further test, the target named is T1, recombinant Aurora A (Homo sapiens, UniProt O14965).
T1 construct: purchased Upstate, Lake Placid, N.Y
T1 sequence (O14965 1-403): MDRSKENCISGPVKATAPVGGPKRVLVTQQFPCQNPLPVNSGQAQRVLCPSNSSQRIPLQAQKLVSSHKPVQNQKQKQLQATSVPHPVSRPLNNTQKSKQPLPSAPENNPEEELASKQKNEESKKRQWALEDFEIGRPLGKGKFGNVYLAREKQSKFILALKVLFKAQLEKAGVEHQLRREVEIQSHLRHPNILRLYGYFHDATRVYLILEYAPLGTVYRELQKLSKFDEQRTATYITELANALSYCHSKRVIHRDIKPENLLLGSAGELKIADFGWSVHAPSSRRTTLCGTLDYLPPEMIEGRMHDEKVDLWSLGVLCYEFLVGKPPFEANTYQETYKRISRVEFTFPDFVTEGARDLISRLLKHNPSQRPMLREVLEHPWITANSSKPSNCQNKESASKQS
Put plainly: Aurora A (Aurora 2) inhibition assay, Z'-Lyte kinase assay. The class given is biochemical. Particulars: ATP 10 μM, 1 h; less than or equal to 100 nM. The protocol: Compounds were tested for their potency against recombinant Aurora A (Upstate, Lake Placid, N.Y.) using the PanVera Z′-Lyte kinase assay kit-Ser/Thr 1 peptide (Invitrogen, Carlsbad, Calif.). Assays were carried out in kinase assay buffer (50 mM HEPES, pH 7.5, 10 mM MgCl2, 5 mM EGTA, 0.05% Brij-35, 2 mM DTT). Test compounds were initially dissolved in DMSO at 100× the highest tested concentration, then serially diluted to 4× test concentrations in kinase assay buffer. Next, Aurora A (final concentration 200-500 ng/mL), Z′-Lyte Ser/Thr 1 peptide (final concentration 2 μM) and ATP (final concentration 10 μM) were added according to the manufacturer's instructions. Assays were carried out in half-area 96-well white polystyrene assay plates (Corning, Corning, N.Y.) in a final volume of 20 μl. The reaction was allowed to proceed for 1 h at room temperature in the dark, at which point the development reagent and stop reagent were added according to the manufacturer's instructions. Coumarin (Ex. 400 nm, Em. 465 nm) and fluorescein (Ex. 400 nm, Em. 565 nm) fluorescence values were measured on a SpectraFluor Plus plate reader (Tecan, Durham, N.C.). The emission ratio (coumarin/fluorescein) was determined and used to calculate the percent phosphorylation for each well. Wells containing substrate but no kinase and wells containing a phosphopeptide control were used to set 0% and 100% phosphorylation values, respectively. Typically 20-40% of the substrate was phosphorylated in wells without inhibitor. Dose-response curves of relative Aurora A activity vs. inhibitor concentration were plotted with Grafit (Erithacus Software, Horley, Surrey, UK).

Structures are written as SMILES. A value given as a limit tells only on which side of the number the result lay.

Turning to `Cc1cc(Nc2cc(N3CCC(N4CCCCC4)CC3)nc(/C=C/c3ccccc3)n2)n[nH]1` [Compound 5, (E)-6-(1,4′-bipiperidin-1′-yl)-N-(5-methyl-1H-pyrazol-3-yl)-2-styrylpyrimidin-4-amine], the IC50 with HCT-116 cell growth and on recombinant Aurora A was no more than 0.1 µM throughout.
Turning to `Cc1cc(Nc2cc(N3CCN(c4ccncc4)CC3)nc(/C=C/c3ccccc3)n2)n[nH]1` [Compound 22, (E)-N-(5-methyl-1H-pyrazol-3-yl)-6-(4-(pyridin-4-yl)piperazin-1-yl)-2-styrylpyrimidin-4-amine], the IC50 in the test on HCT-116 cell growth and on recombinant Aurora A was no more than 0.1 µM each time.

By IC50 is commonly meant the point on the concentration scale where inhibition reaches its midpoint.
